Results taken from ChEMBL document CHEMBL5042519, “Design and synthesis of marine sesterterpene analogues as novel estrogen receptor α degraders for breast cancer treatment” (Eur J Med Chem, 2022).
pIC50: −log10 of the molar value. Activity calls are given as the source filed them. The rule behind the calls is not given here.

Tests used:
MCF7 [1] = test: Antiproliferative activity against human MCF7 cells assessed as reduction in cell viability after 48 hrs by MTT assay; format: functional, cell-based; details: MCF7, 48 h
[2] = Metabolic stability in rat liver microsomes assessed as assessed as intrinsic clearance incubated for 60 mins in presence of NADPH by UPLC-MS analysis; format: ADME, Microsome; details: read-out: CLH
[3] = Antiproliferative activity against human MCF-10A cells assessed as reduction in cell viability after 48 hrs by MTT assay; format: toxicity, cell-based
[4] = Selectivity index, ratio of IC50 for antiproliferative activity against human MCF-10A cells to IC50 for antiproliferative activity against human MDA-MB-231 cells by MTT assay; format: toxicity, cell-based; details: MCF-10A cells versus MDA-MB-231 cells, read-out: Ratio IC50
[5] = molecular target: T1, Estrogen receptor (Homo sapiens) (UniProt P03372); test: Induction of ERalpha degradation in human MCF7 cells assessed as decrease in ERalpha protein expression at 1 uM incubated for 24 hrs by Western blot analysis; format: cell-based
T1 sequence (whole entry): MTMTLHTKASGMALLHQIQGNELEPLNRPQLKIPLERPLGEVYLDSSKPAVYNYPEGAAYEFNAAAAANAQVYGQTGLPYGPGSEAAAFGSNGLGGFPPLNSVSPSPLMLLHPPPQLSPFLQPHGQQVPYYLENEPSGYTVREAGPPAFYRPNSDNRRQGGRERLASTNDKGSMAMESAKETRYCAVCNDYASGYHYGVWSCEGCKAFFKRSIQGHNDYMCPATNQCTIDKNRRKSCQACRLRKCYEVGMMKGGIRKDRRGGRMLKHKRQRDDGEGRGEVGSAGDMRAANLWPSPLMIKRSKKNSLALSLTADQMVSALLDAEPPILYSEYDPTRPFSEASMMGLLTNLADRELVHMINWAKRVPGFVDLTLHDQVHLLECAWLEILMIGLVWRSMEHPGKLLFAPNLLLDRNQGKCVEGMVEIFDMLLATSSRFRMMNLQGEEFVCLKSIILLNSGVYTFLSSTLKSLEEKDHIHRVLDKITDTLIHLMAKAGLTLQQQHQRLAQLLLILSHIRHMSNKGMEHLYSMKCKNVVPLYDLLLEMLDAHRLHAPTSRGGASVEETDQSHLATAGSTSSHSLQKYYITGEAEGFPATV

MCF7 [6] = test: Antiproliferative activity against human MCF7/ADR cells assessed as reduction in cell viability after 48 hrs by MTT assay; format: functional, cell-based; details: MCF7, 48 h
[7] = Metabolic stability in rat plasma assessed as parent compound remaining incubated for 60 mins in presence of NADPH by UPLC-MS analysis; format: ADME, cell-free; details: read-out: Stability
[8] = Resistance index, ratio of IC50 for antiproliferative activity against human MCF7/ADR cells to IC50 for antiproliferative activity against human MCF7 cells; format: functional
MDA-MB-231 = test: Antiproliferative activity against human MDA-MB-231 cells assessed as reduction in cell viability after 48 hrs by MTT assay; details: MDA-MB-231, 48 h

pIC50 (MCF7 [1]): 5.41
microsomal CLint [2]: 14.5 µL/min/mg
Activity [5]: Active
pIC50 (MCF7 [6]): 5.61
remaining at 1 h [7]: 97%
pIC50 (MDA-MB-231): 5.68
Structure (SMILES): CC(C)=C/C=C\[C@H](C)[C@H]1CC[C@]2(C)C[C@@H]3C(C)=CC(=O)[C@H]3/C(C=O)=C\C[C@@H]12
IC50 at 48 h [3]: 3.68 µM
selectivity ratio [4]: 0.94
Ratio IC50 [8]: 0.63
